Assay type in all cases: in vivo
In one series the test system is rats. The series can be described thus: Chronic toxicity, 6 months intramuscular. The procedure:
Chronic toxicity of L-Ala-L-Glu-L-Asp-L-Pro (SEQ ID NO:1) tetrapeptide obtained by the claimed method was investigated by means of a long-term administration thereof to rats weighing 150–250 g. The animals were subject to daily intramuscular administration of the drug in doses 1 μg/kg, 0.1 mg/kg, 1 mg/kg in 0.5 ml of saline for 6 months. Animals' behaviour, food and water consumption, the state of hair integument and mucous membranes were registered. The animals were weighed daily for the first 3 months of the experiment and then—once a month. Haematological and biochemical investigations were conducted in 3 months after the onset of the drug administration and on the experiment completion. Functions of the cardiovascular system, liver, pancreas, kidneys and adrenal glands were assessed. After the treatment completion some animals were subject to pathomorphologic examination with the purpose to estimate the state of different sections of the brain and bone marrow, heart, aorta, lungs, liver, kidneys, endocrine and immune organs.

For series [1], the system named is rats with severe craniocerebral compression. Briefly: Acute severe craniocerebral injury model (CRAA learning, rotating pivot). The procedure:
Effect of L-Ala-L-Glu-L-Asp-L-Pro tetrapeptide on repair processes in the brain was assessed on the model of acute severe craniocerebral injury. Dynamics of the CNS functional restoration was defined by the tests on the coordination of movements and muscular tonus of the animals as well as on their abilities for learning and reproduction of conditioned reflex skills.
Severe craniocerebral compression in the rats was caused by a falling lead weight. In 1, 12, 48 and 96 hours the experimental animals were intramuscularly injected with L-Ala-L-Glu-L-Asp-L-Pro tetrapeptide. Animals in the 2nd group received Cerebrolysin.
Abilities for learning and skill reproduction were estimated by the test on the conditioned reflex of active avoidance (CRAA). To estimate the muscular tonus and coordination of movements the rats were rotated on a pivot at an increasing speed. Simultaneously, the retention time was measured.

The test system of series [2] is mice with compressed fibular nerve. Briefly: Regeneration of the compressed peripheral (fibular) nerve, electrophysiological tests. Conditions: 10 μg/kg i.p. daily for 8 days. The procedure:
The study was accomplished on 22 white unbred male mice weighing 25 to 30 g (7 experimental and 15 control animals).
At the 1st stage of the study, the mice were chronically operated on to compress the fibular nerve. The fibular nerve (n. peroneus communus) in the Nembutal-narcotised mice (60 mg/kg, intraperitoneally) was compressed at a distance of 8 to 9 mm from the innervated muscle—long digital extensor (m. extensor digitorum longus—EDL). The animals were operated on the left hind leg, whilst the corresponding nerve and muscle of the right leg were intact and used further as an intact control.
Afterwards, since the 3rd day after the nerve compression, the mice were intraperitoneally injected with L-Ala-L-Glu-L-Asp-L-Pro tetrapeptide in dose 10 μg/kg, daily for 8 days. The control mice were treated with an equivalent amount of saline.
On the 11th day after the nerve compression surgery (and within 24 hours after the last tetrapeptide injection), the Nembutal-narcotised mice (60 mg/kg) were subject in vivo to electrophysiological tests for different functional parameters of the already germinated nerve and reinnervated skeletal muscular fibres (EDL).

Residues, ends and D or L forms follow the SMILES beside them.

On to `C[C@H](N)C(=O)N[C@@H](CCC(=O)O)C(=O)N[C@@H](CC(=O)O)C(=O)N1CCC[C@H]1C(=O)O` [L-Ala-L-Glu-L-Asp-L-Pro tetrapeptide, L-Alanyl-L-Glutamyl-L-Aspartyl-L-Proline] (H-AEDP-OH), for which, in the series with rats (intramuscular daily for 6 months, 1 μg/kg, 0.1 mg/kg, 1 mg/kg), the “side effects, chronic toxicity” value was “absence of any side effects”. Also, in the series with rats (prolonged intramuscular administration to rats), the “pathologic alterations (general state, peripheral blood indices, intrinsic organs, cardiovascular and respiratory systems, liver and kidney functions)” value is recorded as “no pathologic alterations”. For the same compound, the “time of retention on the rotating pivot relative to control” value in series [1] (48 hours after the trauma) was “twice exceeded that in control”. Further, the “number of trainable animals relative to controls (CRAA)” value in series [1] (96 hours after trauma, intramuscular in 1, 12, 48 and 96 hours) is “twice as much as that in the controls”. For the same compound, the “indices of learning relative to control” value in series [1] (in 30 days) is “higher than those in control”. Besides, the “improvement of the electric threshold of the regenerating nerve” value in series [2] (11th day after nerve compression) is reported as 30–50%. Moreover, the “acetyl choline muscular contraction rate” value in series [2] (FIG. 3) is recorded as “tendency to diminish”. In addition, the “shortening of the latent M-response period” value is reported as 89% in series [2] (intact neuromuscular system) and 59% in series [2] (regenerating nerve (and the muscle)).
